{"source": "patent US20050026979A1", "about": "“Methods for treating inflammation and inflammation-associated diseases with a statin and ether” (priority 2003, published 2005)", "tested_on": "monosodium iodoacetate (\"MIA\")-induced knee joint arthritis", "assay": "Monosodium iodoacetate (MIA)-induced osteoarthritis joint pain model, acute dosing paradigm (hind paw weight distribution, incapacitance tester)", "format": "in vivo, rat (male Wistar)", "conditions": "for Change in Hind Paw Weight Distribution: Day 7 post-MIA, mean, n=6", "method": "Monosodium Iodoacetate (“MIA”)-Induced Osteoarthritis:\nMale Wistar rats (175-200 g) were housed in solid bottom isolator cages, […], with corncob bedding on a 12 hour:12 hour light:dark cycle. Animals were fed standard rat chow with water available ad libitum.\nThe rats were anesthetized with 5% volume/volume (“v/v”) isoflurane gas and maintained with 2% v/v isoflurane gas. The anesthetized rats were given a single intra-articular injection of 1 mg of MIA through the infrapatellar ligament of the right knee. MIA was dissolved in physiologic saline and administered in a volume of 50 μL. The contralateral control knee was injected with 50 μL of physiologic saline. Administration of isoflurane gas was discontinued, and the rats became fully conscious about 5 minutes later.\nShifts in hind paw weight distribution from the right to the left hind paws supporting the right (arthritic) and the left (contralateral control) hind leg knee joints were utilized as an index of joint pain and as a measure of compound efficacy. An incapacitance tester (Model 2KG, Linton Instrumentation, UK) was employed for determination of hind paw weight distribution. Each data point is the mean of three readings of 5 seconds duration.\nThe acute dosing paradigm used herein relates to osteoarthritis signs such as mobility and joint function and osteoarthritis symptoms such as joint pain. In this dosing paradigm, changes in hind paw weight distribution were determined early on Day 7 post-MIA injection, as described previously, to establish a baseline pain reading. […] Changes in hind paw weight distribution were determined 2, 4 and 6 hours post-compound administration.\nMIA was injected into the right knee and saline into the left knee of all rats on Day 0. […] Two, four, and six hours later, the rats were re-assessed.\nStatistically significant differences were determined by one-way ANOVA followed by Dunnett's multiple comparisons procedure. Data are expressed as mean±SEM. N=6 rats per group.", "data": [{"smiles": "CC(C)(CCCCOCCCCC(C)(C)C(=O)[O-])C(=O)[O-].[Ca+2]", "note": "[Compound A, 6-(5-carboxy-5-methyl-hexyloxy)-2,2-dimethyl-hexanoic acid calcium salt]", "values": [{"measurement": "Change in Hind Paw Weight Distribution", "setting": "2 hr post-dose, Compound A 10 mg/kg PO", "result": 21, "unit": "g"}, {"measurement": "Change in Hind Paw Weight Distribution", "setting": "4 hr post-dose, Compound A 10 mg/kg PO", "result": 15, "unit": "g"}, {"measurement": "Change in Hind Paw Weight Distribution", "setting": "6 hr post-dose, Compound A 10 mg/kg PO", "result": 21, "unit": "g"}, {"measurement": "Effect on shift in weight bearing potential (joint pain) versus vehicle, in words", "setting": "Compound A 10 mg/kg PO, 2, 4 and 6 hour post-dose time points", "result": "altered the shift in weight bearing potential (joint pain) in arthritic rats at the 2, 4 and 6 hour post-dose time points in a statistically significant manner"}, {"measurement": "Change in Hind Paw Weight Distribution", "setting": "Pre-Dose (Baseline), group later given Compound A 10 mg/kg PO", "result": 32, "unit": "g"}]}]}
